Test results: patent US20110195111A1, “AQUEOUS COMPOSITIONS AND METHODS” (NATIVIS, INC., priority 2009, published 2011)

Tested on: U-87 glioblastoma cells
Assay: U-87 glioblastoma flank tumor growth in mice
Format: in vivo
Conditions: U-87 flank tumors in mice, 24-day period; untreated about 650 mm^3 (FIG. 11)
Experimental: The ability of water exposed to a taxane signal to inhibit a glioblastoma tumor in an animal model was investigated. In this study, nine groups of 8 mice were each injected in the right flank with 7.355×10^6 U-87 glioblastoma cells, and treatment with the various modalities was begun either one day after inoculating the animals with the cells, or when the tumors reached 75-100 mm^3.
Paclitaxel was initially dissolved in a 1:1 v/v mixture of CremaphorEL and ethanol and stored at 4° C. Final dilution of the drug to a concentration of 1.5 mg/ml was made with 0.9% NaCl immediately before use. In Groups 3 and 4, the paclitaxel was administered by intravenous injection into the tail vein at a dose of 15/mg/kg animal weight on each of five consecutive days. The actual volume administered to each animal was about 0.2 ml of the above paclitaxel formulation.
Animals in Groups 5 and 6 received 20 ml/kg (or about 0.5 ml) of water exposed to taxane signal prepared as described in Section VII, with the Range 1 magnetic field. […]
For all groups, tumor volumes were measured every other day by serial caliper measurements to determine tumor width and length, and calculating an approximate tumor volume from the formula: Tumor volume=(length×width^2)/2.

CC(=O)O[C@H]1C(=O)[C@@]2(C)[C@H]([C@H](OC(=O)c3ccccc3)[C@]3(O)C[C@H](OC(=O)[C@H](O)[C@@H](NC(=O)c4ccccc4)c4ccccc4)C(C)=C1C3(C)C)[C@]1(OC(C)=O)CO[C@@H]1C[C@@H]2O [paclitaxel]
increase in tumor volume over the study period, untreated versus treated animals: more than twice as high in untreated
